# Test results taken from article PMC5931107, “Clinical pharmacodynamic/exposure characterisation of the multikinase inhibitor ilorasertib (ABT-348) in a phase 1 dose-escalation trial” (British Journal of Cancer, 2018).
# Marks after values point to notes of the source that are not given here.
# Experiments:
# [1] = Plasma pharmacokinetics, Arm I (oral QD), phase 1 trial; type: in vivo, human; conditions: for AUC(0-t): AUCt
# Description: Pharmacokinetics of ilorasertib were evaluated in the dose-escalation cohort on blood samples that were collected on cycle 1 days 1 and 15. Parameters determined: Cmax, time to Cmax (Tmax), terminal phase elimination half-life (t1/2), clearance, apparent oral clearance (CL/F), and area under the plasma concentration-time curve from time 0 to time of last measurable concentration (AUCt) and from time 0 to infinity (AUC∞). For Arm I, blood samples were collected prior to dosing and at 0.5, 1, 2, 3, 4, 6, 8, 10 or 12, and 24 h after dosing on cycle 1 days 1 and 15; of note, for institutions not able to collect the 10- or 12-h post-dose sample, the 24-h sample was replaced with 22-h and 28-h post-dose samples. In Arm II, for the first dose, blood samples were collected pre-dose and at 1, 2, 3, and 4 h post-dose on cycle 1 days 1 and 15; for the second dose, samples were collected pre-dose and at 1, 2, 3, 4, 18, and 24 h after second dose on cycle 1 days 1 and 15. In Arm III, blood samples were collected prior to infusion, at 1 h 55 min (just before end of infusion), and at 0.5, 1, 2, 4, 6, 8, 10, and 24 h after end of infusion on cycle 1 days 1 and 15; here also, for institutions not able to collect the 8-h or 10-h after-end-of-infusion samples, the 24-h sample was replaced with 22-h and 28-h post-dose samples. The liquid chromatography (LC)-mass spectrometry (MS)/MS method was developed and validated in the Bioanalysis Department of AbbVie. Fifty microliter of human plasma (K2EDTA as anticoagulant) was fortified with 300 μL of deuterium-stable labelled internal standard and mixed well. A HybridSPE precipitation plate (50 mg/96 wells, Supelco Analytical, Munich, Germany) was used to directly load and elute (under slight vacuum) the fortified samples into a clean collection plate. Samples were dried before reconstitution with 100 μL of 20/80 (v/v) acetonitrile/water, and injected for LC-MS/MS analysis. A Halo C8 (Wilmington, DE, USA; 2.7 μm, 2.1 × 30 mm) was used on an Agilent 1290 Infinity UPLC pump (Agilent Technologies, Santa Clara, CA) to carry out the separation. An isocratic condition with 25/75/0.1 (v/v/v) acetonitrile/water/98% formic acid was used as the mobile phase. The flow rate was set to be 0.6 mL/min. An MPS 3 C ([…] Ruhr, Germany) autosampler was used to introduce samples onto the UPLC system. An API 4000 mass spectrometer (Applied Biosystems, Foster City, CA) was used in the multiple reactions monitoring mode for the detection and quantitation of analyte. Descriptive statistics were used for demographic variables. The numbers and percentages of patients with treatment-emergent AEs (TEAEs) were tabulated using the Medical Dictionary for Regulatory Activities version 16.0 system organ class and preferred term, and further classified according to CTCAE version 4.0 criteria. The safety data set included all patients who received one or more doses of ilorasertib. The pharmacokinetic data set included all patients who received one or more doses of ilorasertib and had one or more pharmacokinetic samples. Values for pharmacokinetic parameters were determined using non-compartmental methods, with data analysed separately for each arm. A repeated measures analysis was performed for Tmax and dose-normalised Cmax, AUCt, and AUC∞. The model included random effects for patient and fixed effects for dose level, day, and the interaction of dose level and day. To assess effects of exposure on pharmacodynamic biomarkers, Cmax was employed as the directly measured marker of exposure for the rapid changes in DBP and PlGF pre-steady-state, while AUC∞ reflected exposure variability at the time of post-multiple-dose skin biopsy. Descriptive statistics were used to summarise ECOG performance status. The efficacy data set included all patients who received one or more doses of ilorasertib.
# [2] = test system: Aurora A; parameters: method as in PMID 22935731; conditions: 1 mM ATP; read-out: Biochemical IC50 (95% confidence limits); cited from earlier work
# [3] = test system: Aurora B (Y156H); parameters: method as in PMID 22935731; conditions: Y156H mutant, 1 mM ATP; read-out: Biochemical IC50 (95% confidence limits); cited from earlier work
# [4] = test system: c-KIT; parameters: method as in PMID 22935731; conditions: 1 mM ATP; read-out: Biochemical IC50 (95% confidence limits); cited from earlier work
# [5] = test system: Aurora B; parameters: method as in PMID 22935731; conditions: Aurora B autophosphorylation, nocodazole-arrested HeLa cells; read-out: Cellular PD marker IC50 (95% confidence limits); cited from earlier work
# [6] = test system: TEL:VEGFR1 catalytic domain fusion; parameters: method as in PMID 22935731; conditions: BaF3 cells expressing TEL:VEGFR1, proliferation as surrogate readout; read-out: Cellular PD marker IC50 (95% confidence limits); cited from earlier work
# [7] = test system: VEGFR2; parameters: method as in PMID 22935731; conditions: cited from earlier work
structure (smiles),measurement,setting,value
"Nc1ncc(-c2cnn(CCO)c2)c2scc(-c3ccc(NC(=O)Nc4cccc(F)c4)cc3)c12 [ilorasertib, Ilorasertib]",t1/2 (harmonic mean),"[1]; Arm I PO QD all doses, day 1, N=21",12.2 ± 6.9^d h
same,half-life,"[1]; human, in vivo, Mean t1/2",~12 h
same,Tmax,"[1]; human, in vivo, Time of peak plasma concentration",~4 h
same,Dose proportionality of exposure (Cmax and AUC),"[1]; human, in vivo, iv",approximately dose proportional
same,half-life,"[1]; human, in vivo, po, 10 mg, t1/2 (harmonic mean)",11.7 ± 1.4 h
same,AUCt,"[1]; human, in vivo, po, 20 mg","1.76 (3.23, 0.29) μg•h/mL"
same,AUC∞,"[1]; human, in vivo, po, 20 mg","1.46 (2.41, 0.51) μg•h/mL"
same,Cmax,"[1]; human, in vivo, po, 20 mg","0.08 (0.14, 0.02) μg/mL"
same,Tmax,"[1]; human, in vivo, po, 20 mg","5.0 (4.0, 6.0) h"
same,AUC(0-t),"[1]; human, in vivo, po, 20 mg",1010 ng·h/mL
same,AUC(0-inf),"[1]; human, in vivo, po, 20 mg",2260 ng·h/mL
same,Tmax,"[1]; human, in vivo, po, 20 mg, Tmax",5 h
same,AUCt,"[1]; human, in vivo, po, 40 mg",1.15 µg·h/mL
same,AUC∞/dose,"[1]; human, in vivo, po, 40 mg",41.0 ng·h/mL/mg
same,CL/F,"[1]; human, in vivo, po, 40 mg",24.4 L/h
same,AUC(0-t),"[1]; human, in vivo, po, 40 mg",640 ng·h/mL
same,AUC(0-inf),"[1]; human, in vivo, po, 40 mg",1640 ng·h/mL
same,Tmax,"[1]; human, in vivo, po, 40 mg, Tmax",8 h
same,half-life,"[1]; human, in vivo, po, 40 mg, t1/2 (harmonic mean)",11.5 h
same,AUCt,"[1]; human, in vivo, po, 80 mg",1.59 ± 1.04 µg·h/mL
same,AUC∞,"[1]; human, in vivo, po, 80 mg",2.75 ± 2.15 µg·h/mL
same,t1/2 (harmonic mean),"[1]; human, in vivo, po, 80 mg",16.8 ± 2.8 h
same,AUC(0-t),"[1]; human, in vivo, po, 80 mg",1900 ± 1100 ng·h/mL
same,AUC(0-inf),"[1]; human, in vivo, po, 80 mg",2820 ± 1540 ng·h/mL
same,Cmax,"[1]; human, in vivo, po, 80 mg, Cmax",220 ± 100 ng/mL
same,Tmax,"[1]; human, in vivo, po, 80 mg, Tmax",4 ± 2 h
same,half-life,"[1]; human, in vivo, po, 80 mg, t1/2 (harmonic mean)",16 ± 1.8 h
same,AUCt,"[1]; human, in vivo, po, 120 mg",2.25 ± 0.61 µg·h/mL
same,AUC∞,"[1]; human, in vivo, po, 120 mg",4.31 ± 2.38^c μg•h/mL
same,Cmax,"[1]; human, in vivo, po, 120 mg",250 ± 140 ng/mL
same,Tmax,"[1]; human, in vivo, po, 120 mg",4.1 ± 2.2 h
same,AUC(0-t),"[1]; human, in vivo, po, 120 mg",3600 ± 2500 ng·h/mL
same,AUC(0-inf),"[1]; human, in vivo, po, 120 mg",5400 ± 2620 ng·h/mL
same,Cmax,"[1]; human, in vivo, po, 120 mg, Cmax",490 ± 330 ng/mL
same,Tmax,"[1]; human, in vivo, po, 120 mg, Tmax",3.8 ± 2.2 h
same,AUC∞,"[1]; human, in vivo, po, 140 mg","4.13 (4.96, 3.31)^a μg•h/mL"
same,Cmax,"[1]; human, in vivo, po, 140 mg",330 ± 190 ng/mL
same,Tmax,"[1]; human, in vivo, po, 140 mg",10.1 ± 12.3 h
same,t1/2 (harmonic mean),"[1]; human, in vivo, po, 140 mg",15.8 ± 23.6 h
same,AUC(0-inf),"[1]; human, in vivo, po, 140 mg",5400 ± 1800 ng·h/mL
same,Cmax,"[1]; human, in vivo, po, 140 mg, Cmax",240 ± 130 ng/mL
same,half-life,"[1]; human, in vivo, po, 140 mg, t1/2 (harmonic mean)",10.1 h
same,Tmax,"[1]; human, in vivo, po, 180 mg",2.0 h
same,t1/2 (harmonic mean),"[1]; human, in vivo, po, 180 mg",11.6 h
same,Tmax,"[1]; human, in vivo, po, 180 mg, Tmax",4 ± 2 h
same,half-life,"[1]; human, in vivo, po, 180 mg, t1/2 (harmonic mean)",9.5 ± 2.7 h
same,Tmax,"[1]; human, in vivo, po, Tmax",4.2 ± 1.8 h
same,half-life,"[1]; human, in vivo, po, t1/2 (harmonic mean)",14 ± 4 h
same,IC50,[4],20 nM
same,IC50,[6],0.3 nM
same,IC50,"[7]; VEGFR2 cellular phosphorylation, ligand stimulated, read-out: Cellular PD marker IC50 (95% confidence limits)",5 nM
same,Potency of VEGFR2 inhibition relative to Aurora kinase B,[7]; cellular assays,two- to five-fold more potent
